# Laboratory results published in US20250034116A1, “1,4-DIHETEROCYCLIC SUBSTITUTED AROMATIC RING OR AROMATIC HETEROCYCLIC COMPOUND AND USE THEREOF” (BeBetter Med Inc., priority 2022, published 2025).
# Key:
# [1] = Pharmacokinetic (PK) experiment, oral administration in rats; type: in vivo, Male SD rats; conditions: 20 mg/kg; for AUC(0-inf) / Cmax / Tmax / half-life / AUC(0-t): male, SD, rat, plasma; for AUC(0-t): read-out: AUC0-24
# Procedure: Male SD rats, weighing 180-250 grams, were fasted overnight before testing. The test compound was dissolved in 30% sulfobutylether-β-cyclodextrin and administered orally at a dose of 20 mg/kg. Blood was collected from the tail vein at 15 minutes, 30 minutes, and 1, 2, 4, 6, 8, and 24 hours after administration. Approximately 0.3 ml of blood was collected at each time point, placed in a centrifuge tube containing K2-EDTA, and centrifuged (2000 g for 10 minutes at 4° C.) to take the plasma, which was then stored in an ultra-low temperature freezer at −70° C. or below. A 50 μL plasma sample was mixed with 135 μL of acetonitrile (containing 0.5 μg/mL internal standard) and vortexed for protein precipitation. After centrifugation, the supernatant was taken for LC-MS/MS analysis.
# [2] = tested on: CYP enzymes in human liver microsomes (HLM); assay: Inhibition of 20-HETE production in human liver microsomes (HLM); type: biochemical
# Procedure: (§1) Experimental principle: The inhibitory activity of 20-HETE production is evaluated by testing the inhibitory effects of the compound on human liver microsomes (HLM), rat liver microsomes (RLM), mouse liver microsomes (MLM), or […] CYP4 subtype enzymes (CYP4F2). This assay employs HLM, RLM, or MLM along with recombinant CYP4F2 (rCYP4F2) and recombinant CYP4A11 (rCYP4A11), which are […] CYP4 subtype enzymes, to detect the effects of the test compound at different concentrations on the metabolic rate of enzyme-specific substrates, to determine the inhibitory effects of the test compound on CYP enzymes in HLM, RLM, or MLM.
# (§2) Experimental methods: Dissolve the test compound in DMSO, and subsequently dilute it with an acetonitrile and DMSO mixture (3:1). Add 2 μl of varying concentrations of the test compound and 100 μl of potassium phosphate buffer containing either liver microsomes or recombinant enzymes to a 96-well plate. After mixing well, transfer 30 μl to another well (in duplicate), add 15 μl of 400 μM substrate solution, and mix well again. Preheat at 37° C. for 10 minutes, and then add 15 μl of 6 mM NADPH and incubate at 37° C. for 25 minutes. After 25 minutes, add 160 μl of acetonitrile solution (containing 0.1 μg/ml internal standard) to stop the reaction. Mix well, centrifuge at 3500 g for 15 minutes, and then analyze the supernatant using LC-MS/MS.
# (§3) Plot the compound concentration on the x-axis and the inhibition rate on the y-axis to draw the curve. Use GraphPad Prism 5 software to fit the curve and calculate the IC50. The formula is Y=Bottom+(Top−Bottom)/(1+10^((Log IC50−X)×HillSlope)). X represents the logarithmic concentration of the inhibitor, and Y represents the relative enzyme activity at a given inhibitor concentration (relative to the condition without the inhibitor).
# (§4) Calculate the inhibition percentages at concentrations of 1000 nM, 500 nM, or 100 nM as well as the half-maximal inhibitory concentration (IC50) of the test compound from the above experiment.
# [3] = tested on: CYP enzymes in rat liver microsomes (RLM); assay: Inhibition of 20-HETE production in rat liver microsomes (RLM); type: biochemical
# Procedure: as §1, §2, §3, §4
# [4] = tested on: CYP enzymes in mouse liver microsomes (MLM); assay: Inhibition of 20-HETE production in mouse liver microsomes (MLM); type: biochemical
# Procedure: as §1, §2, §3, §4
SMILES,IC50 [2] [nM],HLM (% inh @ 500 nM) [2] [%],RLM (% inh @ 500 nM) [3] [%],MLM (% inh @ 1000 nM) [4] [%],HLM (% inh @ 100 nM) [2] [%],other results
"O=C(CCCCCc1ccccc1)NCC1CCN(c2ccc(-c3cn[nH]c3)cc2)CC1 [Compound 113, N-((1-(4-(1H-pyrazol-4-yl)phenyl)piperidin-4-yl)methyl)-6-phenylhexanamide]",20.6,87.72,57.83,–,–,absorption and blood exposure after oral administration (in words) [1]: well absorbed and exhibit high blood exposure; AUC(0-inf) [1]: 10100 ng·h/mL; Cmax [1]: 2420 ng/mL; Tmax [1]: 1.33 h; half-life [1]: 2.93 h; AUC(0-t) [1]: 10100 ng·h/mL; IC50 [3]: 15.5 nM
"O=C(Nc1ccccc1)C1CCN(c2ccc(-c3cn[nH]c3)cc2)CC1 [Compound 58, 1-(4-(1H-pyrazol-4-yl)phenyl)-N-phenylpiperidine-4-carboxamide]",16.6,–,44.45,–,–,IC50 [4]: 1570 nM
"O=C(N1CCC(c2ccc(-c3cn[nH]c3)cc2F)CC1)N1CC2CCCC2C1 (centres unmarked) [Compound 106, (4-(2-fluoro-4-(1H-pyrazol-4-yl)phenyl)piperidin-1-yl)(hexahydrocyclopenta[c]pyrrol-2 (1H)-yl) methanone]",23.2,91.17,84.57,–,–,IC50 [4]: 2810 nM; IC50 [3]: 10.7 nM
"O=C(C1CCN(c2ccc(-c3cn[nH]c3)cc2F)CC1)N1CC2CCCC2C1 (centres unmarked) [Compound 153, (1-(2-fluoro-4-(1H-pyrazol-4-yl)phenyl)piperidin-4-yl)(hexahydrocyclopenta[c]pyrrol-2 (1H)-yl) methanone]",32.4,–,–,–,74.69,absorption and blood exposure after oral administration (in words) [1]: well absorbed and exhibit high blood exposure; AUC(0-inf) [1]: 566000 ng·h/mL; Cmax [1]: 75200 ng/mL; Tmax [1]: 2 h; half-life [1]: 3.26 h; AUC(0-t) [1]: 558000 ng·h/mL; IC50 [3]: 361 nM
"O=C(C1CCCC1)N1CCC(c2ccc(-c3cn[nH]c3)c(F)c2F)CC1 [Compound 98, cyclopentyl(4-(2,3-difluoro-4-(1H-pyrazol-4-yl)phenyl)piperidin-1-yl) methanone]",22,96.23,–,–,–,absorption and blood exposure after oral administration (in words) [1]: well absorbed and exhibit high blood exposure; AUC(0-inf) [1]: 98600 ng·h/mL; Cmax [1]: 8700 ng/mL; Tmax [1]: 3 h; half-life [1]: 2.38 h; AUC(0-t) [1]: 98400 ng·h/mL; IC50 [3]: 9.68 nM
"CC(C)(O)CNC(=O)N1CCC(c2ccc(-c3cn[nH]c3)cc2F)CC1 [Compound 152, 4-(2-fluoro-4-(1H-pyrazol-4-yl)phenyl)-N-(2-hydroxy-2-methylpropyl)piperidine-1-carboxamide]",–,–,–,48.10,88.49,–
"COC1(C(=O)N2CCC(c3ccc(-c4cn[nH]c4)cc3)CC2)CCCCC1 [Compound 150, (4-(4-(1H-pyrazol-4-yl)phenyl)piperidin-1-yl)(1-methoxycyclohexyl) methanone]",–,–,–,40.18,84.56,–
"O=C(N1CCC(c2ccc(-c3cn[nH]c3)cc2F)CC1)N1Cc2ccccc2C1 [Compound 136, (4-(2-fluoro-4-(1H-pyrazol-4-yl)phenyl)piperidin-1-yl)(isoindolin-2-yl) methanone]",19.4,–,–,–,87.34,IC50 [4]: 664 nM
"O=C(N1CCCC1)N1CCC(c2ccc(-c3cn[nH]c3)c(F)c2F)CC1 [Compound 71, (4-(2,3-difluoro-4-(1H-pyrazol-4-yl)phenyl)piperidin-1-yl)(pyrrolidin-1-yl) methanone]",19.7,95.89,75.13,–,–,absorption and blood exposure after oral administration (in words) [1]: well absorbed and exhibit high blood exposure; AUC(0-inf) [1]: 58000 ng·h/mL; Cmax [1]: 8730 ng/mL; Tmax [1]: 2 h; half-life [1]: 2.41 h; AUC(0-t) [1]: 57900 ng·h/mL
"O=C1CCCCCN1CC1CCN(c2ccc(-c3cn[nH]c3)cc2F)CC1 [Compound 161, 1-((1-(2-fluoro-4-(1H-pyrazol-4-yl)phenyl)piperidin-4-yl)methyl) azepan-2-one]",–,–,–,59.36,86.45,–
"O=C(Nc1ccc(F)cc1)C1CCN(c2ccc(-c3cn[nH]c3)cc2)CC1 [Compound 61, 1-(4-(1H-pyrazol-4-yl)phenyl)-N-(4-fluorophenyl)piperidine-4-carboxamide]",17.6,85.27,–,–,–,IC50 [3]: 60.5 nM
"COC(=O)c1cc(-c2cn[nH]c2)ccc1N1CCC(CN2CCCC2=O)CC1 [Compound 18, methyl 2-(4-((2-oxopyrrolidin-1-yl)methyl)piperidin-1-yl)-5-(1H-pyrazol-4-yl)benzoate]",–,47.87,8.61,–,–,–
"O=C(C1CCCC1)N1CCC(c2c(F)cc(-c3cn[nH]c3)cc2F)CC1 [Compound 99, cyclopentyl(4-(2,6-difluoro-4-(1H-pyrazol-4-yl)phenyl)piperidin-1-yl) methanone]",–,96.13,74.05,–,–,–
"CCCCCCC(=O)NCC1CCN(c2ccc(-c3cn[nH]c3)cc2)CC1 [Compound 44, N-((1-(4-(1H-pyrazol-4-yl)phenyl)piperidin-4-yl)methyl) heptylamide]",25.2,85.05,–,–,–,IC50 [3]: 33.8 nM
"O=C(NCC1CCCC1)N1CCN(c2ccc(-c3cn[nH]c3)c(F)c2F)CC1 [Compound 92, N-(cyclopentylmethyl)-4-(2,3-difluoro-4-(1H-pyrazol-4-yl)phenyl)piperazine-1-carboxamide]",26.4,94.83,77.48,–,–,–
"c1cc(N2CCC(CN3CCCC3)CC2)ccc1-c1cn[nH]c1 [Compound 40, 1-(4-(1H-pyrazol-4-yl)phenyl)-4-(pyrrolidin-1-ylmethyl)piperidine]",–,52.40,26.22,–,–,–

# Second part, led by results:
IC50 [2] [nM],HLM (% inh @ 500 nM) [2] [%],RLM (% inh @ 500 nM) [3] [%],MLM (% inh @ 1000 nM) [4] [%],HLM (% inh @ 100 nM) [2] [%],SMILES,other results
–,–,–,60.66,87.74,"O=C(C1CCOC1)N1CCC(c2ccc(-c3cn[nH]c3)cc2F)CC1 (centres unmarked) [Compound 144, (4-(2-fluoro-4-(1H-pyrazol-4-yl)phenyl)piperidin-1-yl)(tetrahydrofuran-3-yl) methanone]",–
17.6,–,–,–,–,"O=C(N1CCC(c2ccc(-c3cn[nH]c3)cc2F)CC1)C1(O)CCCCC1 [Compound 140, (4-(2-fluoro-4-(1H-pyrazol-4-yl)phenyl)piperidin-1-yl)(1-hydroxycyclohexyl) methanone]",IC50 [4]: 1520 nM
–,–,–,59.36,88.15,"O=C(N1CCC(c2ccc(-c3cn[nH]c3)cc2F)CC1)C1(F)CCCCC1 [Compound 141, (4-(2-fluoro-4-(1H-pyrazol-4-yl)phenyl)piperidin-1-yl)(1-fluorocyclohexyl) methanone]",–
–,–,–,47.54,83.42,"O=C(C1CCCCC1O)N1CCC(c2ccc(-c3cn[nH]c3)cc2F)CC1 (single isomer, unassigned) [Compound 149b, (4-(2-fluoro-4-(1H-pyrazol-4-yl)phenyl)piperidin-1-yl)(2-hydroxycyclohexyl) methanone]",–
–,–,–,48.10,88.49,"O=C(C1CCC(O)C1)N1CCC(c2ccc(-c3cn[nH]c3)cc2F)CC1 (single isomer, unassigned) [Compound 145b, (4-(2-fluoro-4-(1H-pyrazol-4-yl)phenyl)piperidin-1-yl)(3-hydroxycyclopentyl) methanone]",–
25.6,–,–,–,–,"O=C(N1CCN(c2ccc(-c3cn[nH]c3)cc2F)CC1)C1(O)CCCCC1 [Compound 132, (4-(2-fluoro-4-(1H-pyrazol-4-yl)phenyl)piperazin-1-yl)(1-hydroxycyclohexyl) methanone]",IC50 [4]: 2420 nM
–,–,–,60.45,86.67,"O=C(C1CCC(O)C1)N1CCC(c2ccc(-c3cn[nH]c3)cc2F)CC1 (single isomer, unassigned) [Compound 145a, (4-(2-fluoro-4-(1H-pyrazol-4-yl)phenyl)piperidin-1-yl)(3-hydroxycyclopentyl) methanone]",–
